Measured values published in patent publication US11643438B2, “Antimicrobial peptides and methods of use” (priority 2018, dated 2023).
Values after ≈ are worked out from the molar mass of the structure shown. Read-outs that look alike come from different tables or passages of the source. *1 amine or outer side, *2 acyl side, *3 side chain or, on linkers, in order; H or OH if unused. Where a SMILES comes first, the peptide text is derived from it. [ ]: non-standard residue; d: D form. X2 = CC[C@H](C)C[C@H](C)C[C@H](C)C[C@H](N[*:1])C(=O)[*:2]; X1 = CC[C@@H](C)[C@@H](O[*:1])C(=O)[*:2]; NMeVal(β-OH) = CN[C@H](C(=O)O)C(C)(C)O; aIle = CC[C@@H](C)[C@H](N)C(=O)O; NMeV = CN[C@H](C(=O)O)C(C)C; Sar = CNCC(=O)O

What was measured:
Candida albicans 1 = test: Antifungal MIC80 assay, clinical yeast isolates
Candida albicans 5 = test: Antifungal MIC80 assay, clinical yeast isolates
Candida albicans 10 = test: Antifungal MIC80 assay, clinical yeast isolates
Candida albicans 21 = test: Antifungal MIC80 assay, clinical yeast isolates
Candida albicans 30 = test: Antifungal MIC80 assay, clinical yeast isolates
Candida glabrata 4 = test: Antifungal MIC80 assay, clinical yeast isolates
Candida glabrata 11 = test: Antifungal MIC80 assay, clinical yeast isolates
Candida glabrata 16 = test: Antifungal MIC80 assay, clinical yeast isolates
Candida glabrata 17 = test: Antifungal MIC80 assay, clinical yeast isolates
Candida parapsilosis 9 = test: Antifungal MIC80 assay, clinical yeast isolates
Candida parapsilosis 15 = test: Antifungal MIC80 assay, clinical yeast isolates
Candida parapsilosis 18 = test: Antifungal MIC80 assay, clinical yeast isolates
Candida parapsilosis 23 = test: Antifungal MIC80 assay, clinical yeast isolates
Candida kefyr 12 = test: Antifungal MIC80 assay, clinical yeast isolates
Candida tropicalis 13 = test: Antifungal MIC80 assay, clinical yeast isolates
Candida auris 381 = test: Antifungal MIC80 assay, clinical yeast isolates
Candida auris 382 = test: Antifungal MIC80 assay, clinical yeast isolates
Candida auris 385 = test: Antifungal MIC80 assay, clinical yeast isolates
Candida auris 386 = test: Antifungal MIC80 assay, clinical yeast isolates
Candida auris 387 = test: Antifungal MIC80 assay, clinical yeast isolates
Candida auris 388 = test: Antifungal MIC80 assay, clinical yeast isolates
Candida auris 389 = test: Antifungal MIC80 assay, clinical yeast isolates
Candida auris 390 = test: Antifungal MIC80 assay, clinical yeast isolates
[1] = system: Candida duobushaemulonii 391; test: Antifungal MIC80 assay, clinical yeast isolates
[2] = system: Candida duobushaemulonii 392; test: Antifungal MIC80 assay, clinical yeast isolates
Candida haemulonii 393 = test: Antifungal MIC80 assay, clinical yeast isolates
Candida lusitaniae 398 = test: Antifungal MIC80 assay, clinical yeast isolates
[3] = system: Saccharomyces cerevisiae 400; test: Antifungal MIC80 assay, clinical yeast isolates
[4] = system: Candida albicans ATCC 10231; test: Antifungal MIC80/MFC assay, fungal pathogen panel; conditions: ATCC10231
[5] = system: Aspergillus fumigatus MYA 3627; test: Antifungal MIC80/MFC assay, fungal pathogen panel; conditions: MYA3627
[6] = system: Aspergillus fumigatus NRRL6113; test: Antifungal MIC80/MFC assay, fungal pathogen panel
[7] = system: Aspergillus flavus NRRL485; test: Antifungal MIC80/MFC assay, fungal pathogen panel
[8] = system: Aspergillus niger FGSC A732; test: Antifungal MIC80/MFC assay, fungal pathogen panel
[9] = system: Curvularia lunata NRRL6409; test: Antifungal MIC80/MFC assay, fungal pathogen panel
[10] = system: Mucor circinelloides 235C7; test: Antifungal MIC80/MFC assay, fungal pathogen panel
Fusarium solani 243G2 = test: Antifungal MIC80/MFC assay, fungal pathogen panel
[11] = system: 44 clinical yeast isolates (Candida, Kodameae, Saccharomyces); test: Antifungal MIC80 assay, summary over 44 clinical yeast isolates

C[C@@H]1[C@H](O)[C@@H](C)/C=C/C=C/C=C/C=C/C=C/C=C/C=C/[C@H](O[C@@H]2O[C@H](C)[C@@H](O)[C@H](N)[C@@H]2O)C[C@@H]2O[C@](O)(C[C@@H](O)C[C@@H](O)[C@H](O)CC[C@@H](O)C[C@@H](O)CC(=O)O[C@H]1C)C[C@H](O)[C@H]2C(=O)O [AMB, amphotericin B]
MIC80 (Candida albicans 1): 0.6 µM (≈ 0.554 µg/mL) | MIC80 (Candida albicans 5): 0.6 µM (≈ 0.554 µg/mL) | MIC80 (Candida albicans 10): 0.6 µM (≈ 0.554 µg/mL) | MIC80 (Candida albicans 21): 0.6 µM (≈ 0.554 µg/mL) | MIC80 (Candida albicans 30): 2.5 µM (≈ 2.31 µg/mL) | MIC80 (Candida glabrata 4; Candida glabrata 4): 1.25 µM (≈ 1.16 µg/mL) | MIC80 (Candida glabrata 11; Candida glabrata 11): 0.3 µM (≈ 0.277 µg/mL) | MIC80 (Candida glabrata 16; Candida glabrata 16): 0.15 µM (≈ 0.139 µg/mL) | MIC80 (Candida glabrata 17; Candida glabrata 17): 0.3 µM (≈ 0.277 µg/mL) | MIC80 (Candida parapsilosis 9; Candida parapsilosis 9): 2.5 µM (≈ 2.31 µg/mL) | MIC80 (Candida parapsilosis 15; Candida parapsilosis 15): 2.5 µM (≈ 2.31 µg/mL) | MIC80 (Candida parapsilosis 18; Candida parapsilosis 18): 1.25 µM (≈ 1.16 µg/mL) | MIC80 (Candida parapsilosis 23; Candida parapsilosis 23): 1.25 µM (≈ 1.16 µg/mL) | MIC80 (Candida kefyr 12; Candida kefyr 12): 0.3 µM (≈ 0.277 µg/mL) | MIC80 (Candida tropicalis 13): 0.15 µM (≈ 0.139 µg/mL) | MIC80 (Candida auris 381; Candida auris 381, multidrug-resistant): 1.25 µM (≈ 1.16 µg/mL) | MIC80 (Candida auris 382; Candida auris 382, multidrug-resistant): 1.25 µM (≈ 1.16 µg/mL) | MIC80 (Candida auris 385; Candida auris 385, multidrug-resistant): 2.5 µM (≈ 2.31 µg/mL) | MIC80 (Candida auris 386; Candida auris 386, multidrug-resistant): 2.5 µM (≈ 2.31 µg/mL) | MIC80 (Candida auris 387; Candida auris 387, multidrug-resistant): 2.5 µM (≈ 2.31 µg/mL) | MIC80 (Candida auris 388; Candida auris 388, multidrug-resistant): 2.5 µM (≈ 2.31 µg/mL) | MIC80 (Candida auris 389; Candida auris 389, multidrug-resistant): 5 µM (≈ 4.62 µg/mL) | MIC80 (Candida auris 390; Candida auris 390, multidrug-resistant): 2.5 µM (≈ 2.31 µg/mL) | MIC80 ([1]; Candida duobushaemulonii 391, multidrug-resistant): 5 µM (≈ 4.62 µg/mL) | MIC80 ([2]; Candida duobushaemulonii 392, multidrug-resistant): 5 µM (≈ 4.62 µg/mL) | MIC80 (Candida haemulonii 393; Candida haemulonii 393, multidrug-resistant): 5 µM (≈ 4.62 µg/mL) | MIC80 (Candida lusitaniae 398; Candida lusitaniae 398, multidrug-resistant): 0.6 µM (≈ 0.554 µg/mL) | MIC80 ([3]; Saccharomyces cerevisiae 400, multidrug-resistant): 1.25 µM (≈ 1.16 µg/mL) | MFC [4]: 2.5 µM (≈ 2.31 µg/mL) | MIC80 [4]: 0.6 µM (≈ 0.554 µg/mL) | MFC [5]: 2.5 µM (≈ 2.31 µg/mL) | MIC80 [5]: 2.5 µM (≈ 2.31 µg/mL) | MFC [6]: 10 µM (≈ 9.24 µg/mL) | MIC80 [6]: 2.5 µM (≈ 2.31 µg/mL) | MFC [7]: 10 µM (≈ 9.24 µg/mL) | MIC80 [7]: 5 µM (≈ 4.62 µg/mL) | MFC ([8]; Aspergillus niger FGSC A732): 2.5 µM (≈ 2.31 µg/mL) | MIC80 ([8]; Aspergillus niger FGSC A732): 0.6 µM (≈ 0.554 µg/mL) | MFC [9]: 2.5 µM (≈ 2.31 µg/mL) | MIC80 [9]: 0.3 µM (≈ 0.277 µg/mL) | MFC [10]: 1.25 µM (≈ 1.16 µg/mL) | MIC80 [10]: 1.25 µM (≈ 1.16 µg/mL) | MFC (Fusarium solani 243G2): 1.25 µM (≈ 1.16 µg/mL) | MIC80 (Fusarium solani 243G2): 1.25 µM (≈ 1.16 µg/mL) | maximum MIC80 value ([11]; 44 clinical yeast isolates): 2.5 µM | median MIC80 ([11]; 44 clinical yeast isolates): 1.25 µM | minimum MIC80 value ([11]; 44 clinical yeast isolates): 0.15 µM

CC[C@H](C)C[C@H](C)C[C@H](C)C[C@@H]1NC(=O)[C@H](C(C)C)N(C)C(=O)[C@@H]([C@H](C)CC)OC(=O)[C@H](C(C)(C)O)N(C)C(=O)[C@H](CC(C)C)NC(=O)[C@H](C(C)C)N(C)C(=O)[C@H]([C@H](C)CC)NC(=O)[C@@H]2CCCN2C(=O)CN(C)C1=O [Compound 1, persephacin] (cyclo(L[NMeVal(β-OH)][X1][NMeV][X2][Sar]P[aIle][NMeV]))
MIC80 (Candida albicans 1): 2.5 µM (≈ 2.69 µg/mL) | MIC80 (Candida albicans 5): 1.25 µM (≈ 1.34 µg/mL) | MIC80 (Candida albicans 10): 2.5 µM (≈ 2.69 µg/mL) | MIC80 (Candida albicans 21): 1.25 µM (≈ 1.34 µg/mL) | MIC80 (Candida albicans 30): 5 µM (≈ 5.38 µg/mL) | MIC80 (Candida glabrata 4; Nakaseomyces glabratus, 4): 1.25 µM (≈ 1.34 µg/mL) | MIC80 (Candida glabrata 11; Nakaseomyces glabratus, 11): 0.6 µM (≈ 0.645 µg/mL) | MIC80 (Candida glabrata 16; Nakaseomyces glabratus, 16): 0.3 µM (≈ 0.323 µg/mL) | MIC80 (Candida glabrata 17; Nakaseomyces glabratus, 17): 0.15 µM (≈ 0.161 µg/mL) | MIC80 (Candida parapsilosis 9; Lodderomyces parapsilosis, 9): 2.5 µM (≈ 2.69 µg/mL) | MIC80 (Candida parapsilosis 15; Lodderomyces parapsilosis, 15): 2.5 µM (≈ 2.69 µg/mL) | MIC80 (Candida parapsilosis 18; Lodderomyces parapsilosis, 18): 1.25 µM (≈ 1.34 µg/mL) | MIC80 (Candida parapsilosis 23; Lodderomyces parapsilosis, 23): 2.5 µM (≈ 2.69 µg/mL) | MIC80 (Candida kefyr 12; Kluyveromyces marxianus, 12): 1.25 µM (≈ 1.34 µg/mL) | MIC80 (Candida tropicalis 13): 0.625 µM (≈ 0.672 µg/mL) | MIC80 (Candida auris 381; Candidozyma auris, 381): 2.5 µM (≈ 2.69 µg/mL) | MIC80 (Candida auris 382; Candidozyma auris, 382): 2.5 µM (≈ 2.69 µg/mL) | MIC80 (Candida auris 385; Candidozyma auris, 385): 2.5 µM (≈ 2.69 µg/mL) | MIC80 (Candida auris 386; Candidozyma auris, 386): 2.5 µM (≈ 2.69 µg/mL) | MIC80 (Candida auris 387; Candidozyma auris, 387): 2.5 µM (≈ 2.69 µg/mL) | MIC80 (Candida auris 388; Candidozyma auris, 388): 2.5 µM (≈ 2.69 µg/mL) | MIC80 (Candida auris 389; Candidozyma auris, 389): 2.5 µM (≈ 2.69 µg/mL) | MIC80 (Candida auris 390; Candidozyma auris, 390): 2.5 µM (≈ 2.69 µg/mL) | MIC80 ([1]; Candidozyma duobushaemuli, 391): 2.5 µM (≈ 2.69 µg/mL) | MIC80 ([2]; Candidozyma duobushaemuli, 392): 2.5 µM (≈ 2.69 µg/mL) | MIC80 (Candida haemulonii 393; Candidozyma haemuli, 393): 0.3 µM (≈ 0.323 µg/mL) | MIC80 (Candida lusitaniae 398; Clavispora lusitaniae, 398): 2.5 µM (≈ 2.69 µg/mL) | MIC80 ([3]; Saccharomyces cerevisiae, 400): 2.5 µM (≈ 2.69 µg/mL) | MFC [4]: 1.25 µM (≈ 1.34 µg/mL) | MIC80 [4]: 0.6 µM (≈ 0.645 µg/mL) | MFC [5]: 5 µM (≈ 5.38 µg/mL) | MIC80 [5]: 2.5 µM (≈ 2.69 µg/mL) | MFC [6]: 5 µM (≈ 5.38 µg/mL) | MIC80 [6]: 2.5 µM (≈ 2.69 µg/mL) | MFC [7]: > 10 µM | MIC80 [7]: 1.25 µM (≈ 1.34 µg/mL) | MFC ([8]; Aspergillus niger, FGSCA732): > 10 µM | MIC80 ([8]; Aspergillus niger, FGSCA732): 1.25 µM (≈ 1.34 µg/mL) | MFC [9]: 0.6 µM (≈ 0.645 µg/mL) | MIC80 [9]: 0.3 µM (≈ 0.323 µg/mL) | MFC [10]: > 10 µM | MIC80 [10]: > 10 µM | MFC (Fusarium solani 243G2): 2.5 µM (≈ 2.69 µg/mL) | MIC80 (Fusarium solani 243G2): 1.25 µM (≈ 1.34 µg/mL) | MIC80 ([11]; read-out: maximum MIC80 value): 5 µM (≈ 5.38 µg/mL) | MIC80 ([11]; read-out: median MIC80): 2.5 µM (≈ 2.69 µg/mL) | MIC80 ([11]; read-out: minimum MIC80 value): 0.15 µM (≈ 0.161 µg/mL)
